Patent US10961235B2, “Crystalline form of masitinib” (Sandoz AG, priority 2017, dated 2021)
Like-named read-outs stand apart in the source and are kept apart here.

Legend:
[1] = cited from earlier work; for hygroscopicity (in words): as described in prior filings
[2] = cited from earlier work
[3] = GMS, 15 to 80% RH, form A comparison (same range as FIG. 6 of WO2017/016512A1); cited from earlier work
[4] = Gravimetric moisture sorption (GMS) of crystalline forms of masitinib mesylate; format: physicochemical
Procedure: Gravimetric moisture sorption/desorption (GMSD) isotherms were recorded with an SPSx-1μ moisture sorption analyzer (ProUmid, Ulm). The measurement cycle was started at ambient relative humidity (RH) of 25%. Relative humidity was then decreased to 5% RH in 5% steps, followed by a further decrease to 3% RH and to 0% RH. Afterwards RH was increased from 0% to 80% RH in a sorption cycle in 5% steps.
The time per step was set to a minimum of 2 hours and a maximum of 6 hours. If an equilibrium condition with a constant mass of ±0.01% within 1 hour was reached before the maximum time for all examined samples the sequential humidity step was applied before the maximum time of 6 hours. If no equilibrium was achieved the consecutive humidity step was applied after the maximum time of 6 hours. The temperature was 25±0.1° C.

[5] = Storage stability of crystalline form M, polymorphic conversion checked by XRPD; format: physicochemical; conditions: for conversion to crystal form I by XRPD / storage stability: 8 weeks at 40° C./75% relative humidity
Procedure: X-Ray powder diffraction (XRPD) was performed with a PANalytical X'Pert PRO diffractometer equipped with a theta/theta coupled goniometer in transmission geometry, Cu—Kα1,2 radiation (wavelength 0.15419 nm) with a focusing mirror and a solid state PIXcel detector. Diffractograms were recorded at a tube voltage of 45 kV and a tube current of 40 mA, applying a stepsize of 0.013° 2-Theta with 40 s per step (255 channels) in the angular range of 2° to 40° 2-Theta at ambient conditions.

Bulk density = format: physicochemical

CS(=O)(=O)O.Cc1ccc(NC(=O)c2ccc(CN3CCN(C)CC3)cc2)cc1Nc1nc(-c2cccnc2)cs1 [form H, salt of masitinib with methane sulfonic acid]
hygroscopicity (in words) [1]: low hygroscopicity

masitinib mesylate [DRX2]
temperatures at which problems with polymorphic conversion occur ([2]; response to the eESR / EP2886543 A1, DRX2 to DRX1 upon heating): above 25 °C

masitinib mesylate [crystal form I]
water uptake in the range from 0% RH to 80% RH ([1]; 0% RH to 80% RH, described for DRX I): 4.3 w-% | behaviour at 80% relative humidity ([1]; 80% RH, WO 2008/098949 A2): remains dry | hygroscopicity (in words) ([1]; listed as DRX1): mildly hygroscopic | weight increase between 0% RH and 80% RH ([1]; response to the eESR, EP 11170200.7): 4.3 weight-% | temperatures at which thermodynamically stable ([2]; WO 2008/098949 A2): below 200 °C

masitinib mesylate [form A]
Mass change (water uptake) in the range of from 15-80% RH [3]: 4.0-6.0 w-% | hygroscopicity (in words) ([1]; listed as crystal form A): remarkably reduced compared to DRX1 | reversible loss of water below 10% RH ([1]; moisture sorption/desorption curves, FIG. 6 of WO2017/016512A1): about 5 weight-%

masitinib mesylate [form M]
hygroscopicity compared with form A [4]: less hygroscopic than form A | Mass change (water uptake / weight gain) in the range of from 15-80% RH ([4]; GMS, 15 to 80% RH, 25±0.1° C., form M, listed as Crystalline form M): 0.5-1.3 w-% | dependence of water content on relative humidity ([4]; range of 15% RH and 80% RH): relatively constant water content | conversion to crystal form I by XRPD after storage ([5]; 8 weeks at 30° C./60% relative humidity): did not convert to or show detectable traces of crystal form I | conversion to crystal form I by XRPD / storage stability ([5]; listed as crystal form M): storage stable | conversion to crystal form I by XRPD / storage stability ([5]; listed as crystalline form M): did not convert to or show detectable traces of crystal form I | time remaining stable as crystalline form M ([5]; 30° C. and 65% relative humidity): at least 8 weeks | time remaining stable as crystalline form M ([5]; 40° C. and 75% relative humidity): at least 8 weeks | polymorphic conversion on storage ([5]; at or below 40° C., relative humidity 15% RH to 75% RH): does not result in polymorphic conversion | bulk density (Bulk density): 0.14 g/mL
